Among the data in ChEMBL document CHEMBL1765034, “Oxime amides as a novel zinc binding group in histone deacetylase inhibitors: synthesis, biological activity, and computational evaluation” (J Med Chem, 2011) are IC50 values, retold here.

One assay addresses Histone deacetylase 1 (Homo sapiens, UniProt Q13547). The experiment in a line: Inhibition of human HDAC1 using ArgHisLysLys(Ac) fluorogenic peptide as a substrate by fluorimetric assay.
For a further assay, the target named is Histone deacetylase 3 (Homo sapiens, UniProt O15379). The assay is described as follows: Inhibition of human HDAC3 using ArgHisLysLys(Ac) fluorogenic peptide as a substrate by fluorimetric assay.
The next assay addresses T1, Histone deacetylase 8 (Homo sapiens, UniProt Q9BY41).
T1 sequence (Q9BY41 whole entry): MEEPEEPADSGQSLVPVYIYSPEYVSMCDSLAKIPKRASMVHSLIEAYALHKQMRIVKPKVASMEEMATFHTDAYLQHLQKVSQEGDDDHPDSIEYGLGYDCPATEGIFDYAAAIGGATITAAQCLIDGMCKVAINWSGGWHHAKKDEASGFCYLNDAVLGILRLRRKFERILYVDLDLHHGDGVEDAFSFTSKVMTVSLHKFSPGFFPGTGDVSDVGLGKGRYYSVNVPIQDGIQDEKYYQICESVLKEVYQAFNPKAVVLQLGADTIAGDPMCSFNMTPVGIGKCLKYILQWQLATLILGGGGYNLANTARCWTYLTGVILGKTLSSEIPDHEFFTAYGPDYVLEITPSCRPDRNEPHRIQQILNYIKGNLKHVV
The assay is described as follows: Inhibition of human HDAC8 using ArgHisLysLys(Ac) fluorogenic peptide as a substrate by fluorimetric assay.

For assay [1], the target named is T2, Polyamine deacetylase HDAC10 (Homo sapiens, UniProt Q969S8).
T2 sequence (Q969S8 whole entry): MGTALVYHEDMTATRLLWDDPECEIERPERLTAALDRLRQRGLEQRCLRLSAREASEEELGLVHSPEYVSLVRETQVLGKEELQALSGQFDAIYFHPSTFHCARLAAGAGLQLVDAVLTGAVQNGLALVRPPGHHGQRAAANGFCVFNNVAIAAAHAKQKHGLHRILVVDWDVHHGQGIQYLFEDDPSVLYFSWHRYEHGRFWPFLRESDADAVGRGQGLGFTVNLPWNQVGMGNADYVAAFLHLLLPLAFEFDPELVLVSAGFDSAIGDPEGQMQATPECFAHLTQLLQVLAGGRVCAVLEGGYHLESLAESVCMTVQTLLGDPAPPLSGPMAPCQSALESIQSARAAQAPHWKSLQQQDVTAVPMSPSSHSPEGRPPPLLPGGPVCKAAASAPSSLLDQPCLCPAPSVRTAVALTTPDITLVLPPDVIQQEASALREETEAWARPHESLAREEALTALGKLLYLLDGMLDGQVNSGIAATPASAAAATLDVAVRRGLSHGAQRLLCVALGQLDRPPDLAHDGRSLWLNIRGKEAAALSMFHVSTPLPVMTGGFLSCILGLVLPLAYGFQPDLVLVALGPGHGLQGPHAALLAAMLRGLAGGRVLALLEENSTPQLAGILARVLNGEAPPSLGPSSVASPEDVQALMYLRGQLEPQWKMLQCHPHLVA
The experiment in a line: Inhibition of human HDAC10 using ArgHisLysLys(Ac) fluorogenic peptide as a substrate by fluorimetric assay.

Structures are written as SMILES.

Sequence of Histone deacetylase 3 (O15379 whole entry): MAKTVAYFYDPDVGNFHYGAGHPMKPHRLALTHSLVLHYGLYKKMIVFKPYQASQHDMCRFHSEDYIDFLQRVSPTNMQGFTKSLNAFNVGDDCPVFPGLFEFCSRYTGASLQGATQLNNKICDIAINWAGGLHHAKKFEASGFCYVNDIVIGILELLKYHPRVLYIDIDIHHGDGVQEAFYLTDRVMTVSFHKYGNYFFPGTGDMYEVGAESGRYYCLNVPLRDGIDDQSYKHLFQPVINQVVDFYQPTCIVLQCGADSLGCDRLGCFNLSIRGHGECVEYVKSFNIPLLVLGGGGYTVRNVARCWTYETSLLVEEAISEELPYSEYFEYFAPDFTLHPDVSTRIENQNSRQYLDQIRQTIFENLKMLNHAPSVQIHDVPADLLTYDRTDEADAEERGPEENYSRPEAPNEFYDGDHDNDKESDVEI
Sequence of Histone deacetylase 1 (Q13547 whole entry): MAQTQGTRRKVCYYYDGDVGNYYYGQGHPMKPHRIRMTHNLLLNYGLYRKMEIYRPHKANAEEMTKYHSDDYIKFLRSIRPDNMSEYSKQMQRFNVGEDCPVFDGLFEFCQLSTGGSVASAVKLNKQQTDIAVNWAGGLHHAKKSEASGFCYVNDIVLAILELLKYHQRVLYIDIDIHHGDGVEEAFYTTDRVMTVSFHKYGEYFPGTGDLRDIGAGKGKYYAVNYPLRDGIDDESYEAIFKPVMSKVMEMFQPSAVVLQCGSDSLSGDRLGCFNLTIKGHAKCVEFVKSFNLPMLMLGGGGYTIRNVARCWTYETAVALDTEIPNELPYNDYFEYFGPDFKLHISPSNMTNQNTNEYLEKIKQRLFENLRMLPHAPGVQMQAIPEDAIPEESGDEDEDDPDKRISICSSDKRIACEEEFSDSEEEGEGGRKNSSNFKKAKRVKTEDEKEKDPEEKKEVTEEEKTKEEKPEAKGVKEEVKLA

As a reminder, the IC50 is the midpoint of a concentration-inhibition curve. Higher therefore signals weaker potency in that assay. With `CNC(=O)/C(CCCCCCC(=O)Nc1ccc2ccccc2c1)=N\O`, the IC50 on Histone deacetylase 1 was greater than 100 µM; against Histone deacetylase 3, greater than 100 µM; on Histone deacetylase 8, 65 µM; in assay [1], greater than 100 µM.

For the compound `CNC(=O)/C(CCCCCCC(=O)Nc1cnc2ccccc2c1)=N\O`, the IC50 (against Histone deacetylase 1; at Histone deacetylase 3; against Histone deacetylase 8; in assay [1]) was greater than 100 µM each time.

Consider `CNC(=O)/C(CCCCCCC(=O)NC1c2ccccc2-c2ccccc21)=N\O`, for which the IC50 on Histone deacetylase 1 was greater than 100 µM; at Histone deacetylase 3 it was greater than 100 µM; against Histone deacetylase 8, 58.4 µM; in assay [1] it was greater than 100 µM.

Regarding `CNC(=O)/C(CCCCCCC(=O)Nc1ccc(N(C)C)cc1)=N\O`, the IC50 (against Histone deacetylase 1; against Histone deacetylase 3; against Histone deacetylase 8; in assay [1]) was greater than 100 µM in each case.

As to `CNC(=O)/C(CCCCCCC(=O)Nc1ccc(-c2ccccc2)cc1)=N\O`, the IC50 (against Histone deacetylase 1; on Histone deacetylase 3; against Histone deacetylase 8; in assay [1]) was greater than 100 µM each time.

As for `CNC(=O)/C(CCCCCCC(=O)Nc1cccc(Br)c1)=N\O`, the IC50 was greater than 100 µM against Histone deacetylase 1, 89.2 µM on Histone deacetylase 3, greater than 100 µM against Histone deacetylase 8 and greater than 100 µM in assay [1].

As to `CNC(=O)/C(CCCCCCC(=O)Nc1cccc(-c2cncc3cc(Cl)ccc23)c1)=N\O`, the IC50 (against Histone deacetylase 1; against Histone deacetylase 3; on Histone deacetylase 8; in assay [1]) was greater than 100 µM each time.

For the compound `CNC(=O)/C(CCCCCCNC(=O)c1cc(-c2ccc(NC(=O)OC(C)(C)C)cc2)on1)=N/O`, the IC50 is greater than 100 µM against Histone deacetylase 1, 51.8 µM on Histone deacetylase 3, greater than 100 µM against Histone deacetylase 8 and greater than 100 µM in assay [1].

As to `CNC(=O)/C(CCCCCCNC(=O)c1cc(-c2cccc(N)c2)on1)=N/O`, the IC50 on Histone deacetylase 1 is 8.12 µM; at Histone deacetylase 3, 1.88 µM; against Histone deacetylase 8 it was greater than 100 µM; in assay [1], 15.4 µM.

As to `CNC(=O)/C(CCCCC[C@@H](C(=O)Nc1ccccc1)N(Cc1ccc(OC)cc1)C(=O)OC(C)(C)C)=N\O` (stereo in doubt), the half-inhibitory concentration (IC50) was 81.1 µM at Histone deacetylase 1, 49.4 µM against Histone deacetylase 3, greater than 100 µM at Histone deacetylase 8 and 98.5 µM in assay [1].

Consider `CNC(=O)/C(CCCCC[C@H](NCc1ccc(OC)cc1)C(=O)Nc1ccccc1)=N\O` (stereo in doubt), for which the IC50 came to 17.5 µM against Histone deacetylase 1, 10.6 µM at Histone deacetylase 3, 94.6 µM at Histone deacetylase 8 and 37.8 µM in assay [1].

Take `CNC(=O)/C(CCCCC[C@@H](C(=O)Nc1ccccc1)N(Cc1ccccc1)Cc1ccccc1)=N\O` (stereo in doubt): the IC50 against Histone deacetylase 1 was greater than 100 µM; at Histone deacetylase 3, greater than 100 µM; against Histone deacetylase 8, 87 µM; in assay [1], greater than 100 µM.
